Data reported in PubChem BioAssay AID1963430 (Molecular Pharmacology Branch, DTP, NCI, 2024).
pIC50: −log10 of the molar value.

System: 521955-158-R2-J5-PDC complex spheroid growth, % test/control
Assay: Anticancer human tumor 521955-158-R2-J5-PDC patient-derived pancreatic carcinoma cell line growth inhibition [Asc]
Details: for pIC50: curve of first compound; for viability, T/C: stronger effect = lower value
Procedure: Multicellular complex tumor spheroid response to apoptosis pathway targeting inhibitors Alrizomadlin, Pelcitoclax, and Dasminapant in combination with a variety of drugs and investigational agents in selected tumor cell lines
The MDM2 inhibitor alrizomadlin, the Bcl-2/Bcl-xL inhibitor pelcitoclax, and the IAPs inhibitor dasminapant were evaluated both individually and in combination with standard of care and investigational anticancer small molecules within a complex spheroid model of solid tumors. . Complex spheroids include a stromal component modeled by human endothelial cells (HUVEC) and fibroblasts modeled by human mesenchymal stem cells (MSCs). The concentration ranges selected for each drug and investigational agent were based upon clinically achievable concentrations if the clinical Cmax of the agent was known.
Compounds. The drugs and investigational agents: alrizomadlin (APG-115; NSC831270), pelcitoclax (APG-1252; NSC835773), dasminapant (APG-1387;NSC834197), TAK-243 (NSC785004), copanlisib (NSC809693), olaparib (NSC753686), talazoparib (NSC767125), cobimetinib (NSC 768068), eltanexor (KPT-8602, NSC 794443), abemaciclib (NSC 768073), sotorasib (NSC818433), adagrasib (NSC 831453), MRTX-1133 (NSC 836407), Iadademestat (ORY1001, NSC 806812), and RMC-4630 (NSC839698), were obtained from the NCI Developmental Therapeutics Program Chemical Repository. The FDA-approved anticancer drug set is available from the Developmental Therapeutics Program at https://dtp.cancer.gov/organization/dscb/obtaining/available plates.htm. […] The stock solutions were prepared in dimethyl sulfoxide (DMSO, Sigma-Aldrich, St. Louis, MO, cat. D2650) at 800-fold the tested concentration and stored at -70 degrees C prior to their use. All drugs and investigational agents were tested over a range starting from a high concentration at or near the clinical Cmax and decreasing in half-log increments. If the clinical Cmax for an agent had not been determined, the highest concentration tested was 10 microM.
The patient-derived cancer (PDC) cell lines include five colon adenocarcinomas: 186277-243-T-J2-PDC, 616215-338-R-J1-PDC, 439559-082-T-J2-PDC, 463943-066-T-J2-PDC, and 519858-162-T-J1-PDC; three pancreatic carcinomas: 323965-272-R-J2-PDC, 521955-158-R6-J3-PDC, and 521955-158-R2-J5-PDC; two uterine sarcomas: 327498-152-R-J2-PDC and 993429-296-R-J1-PDC; two rhabdomyosarcomas: 755483-174-R-J1-PDC and 772245-204-R-J1-PDC; two soft tissue sarcomas: 126254-015-R-J1-PDC and 494315-158-R-J1-PDC; two malignant fibrous histiocytomas: 317291-083-R-J1-PDC and 596521-263-R-J1-PDC; two breast carcinomas: 171881-019-R-J1-PDC and 885512-296-R-J2-PDC; and one ovarian carcinoma: 6556581-035-R-J-PDC were obtained from the NCI PDMR, (https://pdmr.cancer.gov). The established cell lines HSSY-2 synovial sarcoma (RRID:CVCL 8719), SYO-1 synovial sarcoma (RRID:CVCL_7146), MPNST malignant peripheral neural sheath tumor were obtained from the Sloan Kettering Institute. The following established cell lines were purchased from the American Type Culture Collection (ATCC, Manassas, VA), Sor the received from the NCI repository:, PANC-1 pancreatic carcinoma (CRL-1469, RRID:CVCL_0480), OVCAR-5 ovarian carcinoma (RRID:CVCL_1628), OVCAR-8 ovarian carcinoma (RRID:CVCL_1629), , MCF-7 breast carcinoma (CRL-12584, RRID:CVCL_0031), MDA-MB-231 breast carcinoma (CRL-12532, RRID:CVCL_0062), NCI-H1876 small cell lung carcinoma (CRL-5902, RRID:CVCL_1503), NCI-H510A small cell lung carcinoma (HTB-184, RRID:CVCL_1565), NCI-H1417 (CRL-5869, RRID:CVCL_1469), and NCI-H196 small cell lung carcinoma (CRL-5823, RRID:CVCL_1509). Dr. Peter Houghton (Greehey Children's Cancer Research Institute, University of Texas Health Science Center, San Antonio, TX) provided Rh-18 rhabdomyosarcoma (RRID:CVCL_1659). Pooled donor human umbilical vein endothelial cells (HUVEC, Lonza, cat. CC-2519) and human mesenchymal stem cells (hMSC, Lonza, cat. PT-2501) were purchased from Lonza (Walkersville, MD).
Cell Culture. […]
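Also: spheroids exposed to agents for 7 days before readout.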
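For viability, T/C in this document: 100% = DMSO vehicle control viability.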

`NC(=O)C(=Cn1cnc(-c2cc(C(F)(F)F)cc(C(F)(F)F)c2)n1)c1cncnc1` + CNC(C)C(=O)NC1CN(S(=O)(=O)c2cccc(S(=O)(=O)N3CCC4CCC(C(=O)NC(c5ccccc5)c5ccccc5)N4C(=O)C(NC(=O)C(C)NC)C3)c2)CCC2CCC(C(=O)NC(c3ccccc3)c3ccccc3)N2C1=O showed a pIC50 (second compound 0.01 µM) of 8.27, a pIC50 (second compound 0.0316 µM) of 8.06 and a pIC50 (second compound 0.1 µM) of 7.35. It also gave a pIC50 (second compound 0.316 µM) of 7.63, a pIC50 (second compound 1 µM) of 7.32 and a viability, T/C (second compound 0.01 µM, first compound 0.000949 µM) of 96.9%. It also gave a viability, T/C (second compound 0.01 µM, first compound 0.003 µM) of 60.7%, a viability, T/C (second compound 0.01 µM, first compound 0.00949 µM) of 39% and a viability, T/C (second compound 0.01 µM, first compound 0.03 µM) of 43%. The viability, T/C (second compound 0.01 µM, first compound 0.0949 µM) was 37.4%, the viability, T/C (second compound 0.01 µM, first compound 0.3 µM) was 34.8% and the viability, T/C (second compound 0.0316 µM, first compound 0.000949 µM) was 84.4%. For the same compound, the viability, T/C (second compound 0.0316 µM, first compound 0.003 µM) was 91.9%, the viability, T/C (second compound 0.0316 µM, first compound 0.00949 µM) was 46.5% and the viability, T/C (second compound 0.0316 µM, first compound 0.03 µM) was 36.5%. For the same compound, the viability, T/C (second compound 0.0316 µM, first compound 0.0949 µM) was 34.8%, the viability, T/C (second compound 0.0316 µM, first compound 0.3 µM) was 27.4% and the viability, T/C (second compound 0.1 µM, first compound 0.000949 µM) was 97.8%. For the same compound, the viability, T/C (second compound 0.1 µM, first compound 0.003 µM) was 77.9%, the viability, T/C (second compound 0.1 µM, first compound 0.00949 µM) was 72.9% and the viability, T/C (second compound 0.1 µM, first compound 0.03 µM) was 52.6%. It also gave a viability, T/C (second compound 0.1 µM, first compound 0.0949 µM) of 42.6%, a viability, T/C (second compound 0.1 µM, first compound 0.3 µM) of 27.1% and a viability, T/C (second compound 0.316 µM, first compound 0.000949 µM) of 86.2%. The viability, T/C (second compound 0.316 µM, first compound 0.003 µM) was 76%, the viability, T/C (second compound 0.316 µM, first compound 0.00949 µM) was 39.8% and the viability, T/C (second compound 0.316 µM, first compound 0.03 µM) was 61.5%. For the same compound, the viability, T/C (second compound 0.316 µM, first compound 0.0949 µM) was 40.7%, the viability, T/C (second compound 0.316 µM, first compound 0.3 µM) was 25.9% and the viability, T/C (second compound 1 µM, first compound 0.000949 µM) was 108%. The viability, T/C (second compound 1 µM, first compound 0.003 µM) was 89.7%, the viability, T/C (second compound 1 µM, first compound 0.00949 µM) was 77.2% and the viability, T/C (second compound 1 µM, first compound 0.03 µM) was 58.6%. The viability, T/C (second compound 1 µM, first compound 0.0949 µM) was 36.1% and the viability, T/C (second compound 1 µM, first compound 0.3 µM) was 32.3%.
With `C=CC(=O)N1CCN(c2nc(=O)n(-c3c(C)ccnc3C(C)C)c3nc(-c4c(O)cccc4F)c(F)cc23)C(C)C1` (stereo not given) + CCN1C(C(=O)NC23CCC(C(=O)O)(CC2)CC3)C(c2cccc(Cl)c2F)C2(C(=O)Nc3cc(Cl)ccc32)C12CCCCC2 the pIC50 (second compound 0.03 µM) was < 5.00, the pIC50 (second compound 0.0949 µM) was < 5.00 and the pIC50 (second compound 0.3 µM) was < 5.00. The pIC50 (second compound 0.949 µM) was < 5.00, the pIC50 (second compound 3 µM) was < 5.00 and the viability, T/C (second compound 0.03 µM, first compound 0.0316 µM) was 75.2%. For the same compound, the viability, T/C (second compound 0.03 µM, first compound 0.1 µM) was 67.4%, the viability, T/C (second compound 0.03 µM, first compound 0.316 µM) was 92.5% and the viability, T/C (second compound 0.03 µM, first compound 1 µM) was 113%. The viability, T/C (second compound 0.03 µM, first compound 3.16 µM) was 127%, the viability, T/C (second compound 0.03 µM, first compound 10 µM) was 98.3% and the viability, T/C (second compound 0.0949 µM, first compound 0.0316 µM) was 112%. For the same compound, the viability, T/C (second compound 0.0949 µM, first compound 0.1 µM) was 107%, the viability, T/C (second compound 0.0949 µM, first compound 0.316 µM) was 113% and the viability, T/C (second compound 0.0949 µM, first compound 1 µM) was 116%. For the same compound, the viability, T/C (second compound 0.0949 µM, first compound 3.16 µM) was 114%, the viability, T/C (second compound 0.0949 µM, first compound 10 µM) was 105% and the viability, T/C (second compound 0.3 µM, first compound 0.0316 µM) was 76.2%. It also gave a viability, T/C (second compound 0.3 µM, first compound 0.1 µM) of 110%, a viability, T/C (second compound 0.3 µM, first compound 0.316 µM) of 111% and a viability, T/C (second compound 0.3 µM, first compound 1 µM) of 122%. The viability, T/C (second compound 0.3 µM, first compound 3.16 µM) was 130%, the viability, T/C (second compound 0.3 µM, first compound 10 µM) was 91.2% and the viability, T/C (second compound 0.949 µM, first compound 0.0316 µM) was 107%. The viability, T/C (second compound 0.949 µM, first compound 0.1 µM) was 110%, the viability, T/C (second compound 0.949 µM, first compound 0.316 µM) was 140% and the viability, T/C (second compound 0.949 µM, first compound 1 µM) was 130%. It also gave a viability, T/C (second compound 0.949 µM, first compound 3.16 µM) of 130%, a viability, T/C (second compound 0.949 µM, first compound 10 µM) of 90.2% and a viability, T/C (second compound 3 µM, first compound 0.0316 µM) of 128%. For the same compound, the viability, T/C (second compound 3 µM, first compound 0.1 µM) was 135%, the viability, T/C (second compound 3 µM, first compound 0.316 µM) was 123% and the viability, T/C (second compound 3 µM, first compound 1 µM) was 141%. For the same compound, the viability, T/C (second compound 3 µM, first compound 3.16 µM) was 120% and the viability, T/C (second compound 3 µM, first compound 10 µM) was 112%.
